According to patent US5171863A, “Intermediates for preparing 4-substituted 2-5(H)-furanones as anti-inflammatory agents” (Allergan, Inc., priority 1991, dated 1992):
pIC50: −log10 of the molar value. Where two headings read alike, the source gives them in different places.

Experiments:
[1] = target: bee venom phospholipase A2 (Apis mellifera, UniProt P00630); assay: biochemical; settings: read-out: IC50 (micromolar), Phospholipase A2 Assay
[2] = Isomerization upon standing; format: physicochemical
[3] = system: Calcium Channel; assay: Calcium Channel (mobilization) Inhibition Assay; format: cell-based
Text: Calcium Channel (mobilization) Inhibition Assay
Polymorphonuclear leukocytes (PMNa), gastric glands, GH3 cells, A431 cells, spleen cells, human keratinocytes corneal cells, etc. were loaded with the Ca^2+ sensitive fluorescent dye, Fura-2. The appropriate cell type was chosen and the potency and efficacy of the anti-inflammatoryfuranones on calcium mobilization, calcium channel inhibition was quantitated. The methods used for A431 cells listed below are representative of those used for other cells.
A431 cells were detached using a 5-10 min trypsin-EDTA treatment whereas GH3 cells were treated 2 to 5 min with a 1% pancreatin solution. Cells were immediately washed twice in a 20 mM HEPES buffer (pH 7.4) containing 120 mM NaCl, 6 mM KCl, 1 mM MgSO4, 1 mg/ml glucose and 1 mg/ml pyruvate and 1.4 mM calcium (medium A). Approximately 5×10^6 cells were suspended in medium A and incubated with 4 uM fura-2-AM for 15 min at 37° C.
After washing the fura-2 loaded cells, the uptake of dye was checked using fluorescence microscopy and found to be evenly distributed in the cytosol of all cells. Fluorescence was continuously recorded with a Perkin-Elmer LS-5 spectrofluorometer. The excitation wavelength was set at 340 nm and emission wavelength set at 500 nm. The cell suspension was continually stirred, maintained at 37° C. and equilibrated for approximately 5 min before addition of various agents. [Ca^2+ i was calculated using the following formula: [formula]
All fluorescence values were measured relative to a EGTA-quenched signal determined as follows: F was the relative fluorescence measurement of the sample. Fmax was determined by lysing the cells with digitonin (100 ug/ml) in DMSO. After Fmax was determined the pH was adjusted to 8, with NaOH and Ca^2+ chelated with 3 mM EGTA to totally quench the fura-2 signal and obtain Fmin.
When quin-2- was used, cells were incubated with 10 uM quin-2- at 37° C. for 1 hour, washed and then used.
In the above-described phospholipase A2 (PLA2) and calcium^+ channel mobilization assays certain examplary compounds made from the synthetic intermediate compounds of the present invention had the following activities.

[4] = prior art; cited from earlier work
[5] = system: phosphoinositide-specific phospholipase C; settings: reported, Bennett et al, Molecular Pharmacology 32:587-593 (1987); cited from earlier work
[6] = read-out: IC50 (umolar) (KCl regulated), Calcium Channel Inhibition Assay
[7] = read-out: IC50 (umolar) (TRH regulated), Calcium Channel Inhibition Assay

Sequence of bee venom phospholipase A2 (P00630 34-167 limits assumed): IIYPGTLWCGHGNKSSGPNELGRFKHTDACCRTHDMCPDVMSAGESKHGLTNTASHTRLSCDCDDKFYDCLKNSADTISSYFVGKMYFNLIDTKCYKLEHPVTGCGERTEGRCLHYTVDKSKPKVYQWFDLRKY

Structure (SMILES): COCCOCOCC1=CC(=O)OC1O (stereo not drawn) [Compound 20]
- pIC50 [1]: < 6.00

Structure (SMILES): CCCCCCCCCCCCP(=O)(O)OCC1=CC(=O)OC1O (stereo not drawn) [Compound 21, 4-(Dodecylohosphonyloxymethyl)-5-hydroxy-2(5H)-furanone]
- pIC50 [1]: 7.52

Structure (SMILES): CCCCCCCCCCCCNC(=O)OCC1=CC(=O)OC1O (stereo not drawn) [Compound 22, 4-(N-Dodecylcarbamoyloxymethyl)-5-hydroxy-2(5H)-furanone]
- pIC50 [1]: 7.30

Structure (SMILES): CCCCCCCCCCCCOCC1=CC(=O)OC1O (stereo not drawn) [Compound 23]
- pIC50 [1]: 7.40

Structure (SMILES): CCOP(=O)(OCC)OCC1=CC(=O)OC1O (stereo not drawn) [Compound 24, 4-1-(Diethylphosphoryloxy)methyl-5-hydroxy-2(5H)-furanone]
- pIC50 [1]: 6.47

Structure (SMILES): CCCCCCCCCCCC(=O)NCC1=CC(=O)OC1O (stereo not drawn) [Compound 25, 4-(N-Dodecanoylaminomethyl)-5-hydroxy-2(5H)-furanone]
- pIC50 [1]: 6.59

Structure (SMILES): CCCCCCCCCCCCNC(=O)NCC1=CC(=O)OC1O (stereo not drawn) [Compound 26, 4-(N-Dodecylureido)methyl-5-hydroxy-2(5H)-furanone]
- pIC50 [1]: 6.89

Structure (SMILES): CCCCCCCCCCCCS(=O)(=O)NCC1=CC(=O)OC1O (stereo not drawn) [Compound 27, 4-(N-Dodecylsulfonamido)-methyl-5-hydroxy-2(5H)-furanone]
- pIC50 [1]: 7.40

Structure (SMILES): CCCCCCCCCCCCC(OC(C)=O)C1=CC(=O)OC1O (stereo not drawn) [Compound 28, 4(1-Acetoxytridecyl)-5-hydroxy-2(5H)-furanone]
- pIC50 [1]: 7.40

Structure (SMILES): CCCCCCCCCCCCC(NC(C)=O)C1=CC(=O)OC1O (stereo not drawn) [Compound 29]
- pIC50 [1]: 7.15

Structure (SMILES): CCCCCCCCCCCCC(NC(=O)C(F)(F)F)C1=CC(=O)OC1O (stereo not drawn) [Compound 30]
- pIC50 [1]: 7.22

Structure (SMILES): CCCCCCCCCCCCC(NS(C)(=O)=O)C1=CC(=O)OC1O (stereo not drawn) [Compound 31]
- pIC50 [1]: 7.30

Structure (SMILES): CCCCCCCCCCCCC(NC(=O)NC)C1=CC(=O)OC1O (stereo not drawn) [Compound 32, 4-[-1-(N-methylureido)tridecyl]-5-hydroxy-2(5H)-furanone]
- pIC50 [1]: 6.32

Structure (SMILES): CCCCCCCCCCCC(=O)NCC(O)C1=CC(=O)OC1O (stereo not drawn) [Compound 40, 4-(2-Undecanylamido-1-hydroxy)ethyl-5-hydroxy-2(5H)-furanone]
- pIC50 [1]: 6.55

Structure (SMILES): CCCCCCCCCCCC(=O)NCC(OC(C)=O)C1=CC(=O)OC1O (stereo not drawn) [Compound 41, 4-(1-Acetoxy-2-undecanylamido)ethyl-5-hydroxy-2(5H)-furanone]
- pIC50 [1]: 7.40

Structure (SMILES): CCCCCCCCCCCC(=O)NCC(OC(=O)CCCCCCCCCCC)C1=CC(=O)OC1O (stereo not drawn) [Compound 42, 4-(2-Undecanylamido-1-dodecanoyloxy)ethyl-5-hydroxy-2(5H)-furanone]
- pIC50 [1]: 7.52

Structure (SMILES): CCCCCCCCCCCCS(=O)(=O)NCC(OC(C)=O)C1=CC(=O)OC1O (stereo not drawn) [Compound 43, 4-[1-Acetoxy-2-(dodecanesulfonylamido)ethyl]-5-hydroxy-2(5H)-furanone]
- pIC50 [1]: 7.52

Structure (SMILES): CC(=O)OC(CNC(=O)CCCCCCCCCCC(=O)O)C1=CC(=O)OC1O (stereo not drawn) [Compound 44]
- pIC50 [1]: 7.05

Structure (SMILES): CCCCCCCCCCCC(=O)OC(CNC(=O)N1CCN(S(C)(=O)=O)CC1)C1=CC(=O)OC1O (stereo not drawn) [Compound 45]
- pIC50 [1]: 7.30

Structure (SMILES): CCCCCCCCCCCC(=O)OC(CNC(=O)N(CC)CC)C1=CC(=O)OC1O (stereo not drawn) [Compound 46, 4-[1-Dodecanoyloxy-2-(N',N'-diethyl)carboxyamido]ethyl-5-hydroxy-2(5H)-furanone]
- pIC50 [1]: 7.70

Structure (SMILES): CCCCCCCCCCCCSCC1=CC(=O)OC1O (stereo not drawn) [Compound 47, 4-Dodecanethiomethyl-5-hydroxy-2(5H)-furanone]
- pIC50 [1]: 7.22

Structure (SMILES): CCCCCCCCCCCC(=O)OCCCC1=CC(=O)OC1O (stereo not drawn) [Compound 50]
- pIC50 [1]: 6.30

Structure (SMILES): CCCCCCCCOC(=O)C=CC1=CC(=O)OC1O (stereo not drawn) [Compound 51, Octyl 3-(5-hydroxy-2-on-4-furyl)propen-2-oate]
- pIC50 [1]: 7.05

Structure (SMILES): CCCCCCCCCCCCC(OC(C)=O)C1=CC(=O)OC1(C)O (stereo not drawn) [Compound 60, 4-(1-Acetoxytridecyl)-5-hydroxy-5-methyl-2-furanone]
- pIC50 [1]: 7.22
- isomerization of epimers upon standing [2]: isomerizes upon standing

Structure (SMILES): CCCCCCCCCCCCC(OC(C)=O)C1=C(C)C(=O)OC1O (stereo not drawn) [Compound 61, 4-(1-Acetoxytridecyl)-3-methyl-5-hydroxy-2(5H)-furanone]
- pIC50 [1]: < 6.00

Structure (SMILES): CCCCCCCCCCCCC(OC(=O)Nc1ccccc1)C1=CC(=O)OC1(C)O (stereo not drawn) [Compound 62, 5-Methyl-5-hydroxy-4-(1-phenylcarbamoyloxy)tridecyl-2-furanone]
- pIC50 [1]: 6.62

Structure (SMILES): CCCCCCCCC(OC(C)=O)C1=CCOC1=O (stereo not drawn) [Compound 70, 3-(1-Acetoxynonyl)-2(5H)-furanone]
- pIC50 [3, 6]: 5.47
- pIC50 [3, 7]: 5.31

Structure (SMILES): CCCCCCCCCCCCC(O)C1=CCOC1=O (stereo not drawn) [Compound 71, 3-(1-Hydroxytridecyl)-2(5H)-furanone]
- pIC50 [3, 6]: 5.96
- pIC50 [3, 7]: 5.70

Structure (SMILES): CCCCCCCCCCCCC(OC(C)=O)C1=CCOC1=O (stereo not drawn) [Compound 72, 3-(1-Acetoxytridecyl)-2(5H)-furanone]
- pIC50 [3, 6]: 6.06
- pIC50 [3, 7]: 4.77

Structure (SMILES): CC1=C(CC/C(C)=C/CCC(C=O)=CC=CC2=CC(=O)OC2O)C(C)(C)CCC1 (stereo not drawn) [dehydro-seco-manoalide]
- anti-inflammatory, immunosuppressive and analgesic properties [4]: anti-inflammatory activity

Structure (SMILES): CC1=C(CC/C(C)=C/CCC2=CCC(C3=CC(=O)OC3O)OC2O)C(C)(C)CCC1 (stereo not drawn) [manoalide, reference compound]
- pIC50 [3, 6]: 6.00
- pIC50 [3, 7]: 6.00
- inhibition of phosphoinositide-specific phospholipase C [5]: inhibition of phosphoinositide-specific phospholipase C
- anti-inflammatory, immunosuppressive and analgesic properties [4]: anti-inflammatory,immunosuppressive and analgesic properties

Structure (SMILES): CC1=C(CC/C(C)=C/CCC(C=O)=CCC(O)C2=CC(=O)OC2O)C(C)(C)CCC1 (stereo not drawn) [seco-manoalide]
- anti-inflammatory, immunosuppressive and analgesic properties [4]: anti-inflammatory activity
